Experimental data published in PubChem BioAssay AID1259407 (Chemical Carcinogenesis Research Information System (CCRIS), 2018).
Activity calls are given as the source filed them. The rule behind the calls is not given here.

Test system: CCRIS mutagenicity, Ames/micronucleus/aberration tests
Assay: CCRIS mutagenicity studies
Details: Test System: AMES SALMONELLA TYPHIMURIUM

Structure (SMILES): C=C(C)C(=O)OCCC
- mutagenic call (Strain/Indicator: TA98, Metabolic Activation: HAMSTER, LIVER, S-9, AROCLOR 1254 (10%), Method: PREINCUBATION): inactive; negative
- mutagenic call (Strain/Indicator: TA98, Metabolic Activation: NONE, Method: PREINCUBATION): inactive; negative
- mutagenic call (Strain/Indicator: TA98, Metabolic Activation: RAT, LIVER, S-9, AROCLOR 1254 (10%), Method: PREINCUBATION): inactive; negative
- mutagenic call (Strain/Indicator: TA100, Metabolic Activation: HAMSTER, LIVER, S-9, AROCLOR 1254 (10%), Method: PREINCUBATION): inactive; negative
- mutagenic call (Strain/Indicator: TA100, Metabolic Activation: NONE, Method: PREINCUBATION): inactive; negative
- mutagenic call (Strain/Indicator: TA100, Metabolic Activation: RAT, LIVER, S-9, AROCLOR 1254 (10%), Method: PREINCUBATION): inactive; negative
- mutagenic call (Strain/Indicator: TA1535, Metabolic Activation: HAMSTER, LIVER, S-9, AROCLOR 1254 (10%), Method: PREINCUBATION): inactive; negative
- mutagenic call (Strain/Indicator: TA1535, Metabolic Activation: NONE, Method: PREINCUBATION): inactive; negative
- mutagenic call (Strain/Indicator: TA1535, Metabolic Activation: RAT, LIVER, S-9, AROCLOR 1254 (10%), Method: PREINCUBATION): inactive; negative
- mutagenic call (Strain/Indicator: TA1537, Metabolic Activation: HAMSTER, LIVER, S-9, AROCLOR 1254 (10%), Method: PREINCUBATION): inactive; negative
- mutagenic call (Strain/Indicator: TA1537, Metabolic Activation: NONE, Method: PREINCUBATION): inactive; negative
- mutagenic call (Strain/Indicator: TA1537, Metabolic Activation: RAT, LIVER, S-9, AROCLOR 1254 (10%), Method: PREINCUBATION): inactive; negative

Structure (SMILES): O=[N+]([O-])c1ccc2c3c(cccc13)-c1ccccc1-2
- mutagenic call (Strain/Indicator: TA97, Metabolic Activation: NONE): active; positive
- mutagenic call (Strain/Indicator: TA98(1,8-DNP6), Metabolic Activation: NONE): active; positive
- mutagenic call (Strain/Indicator: TA98(1,8-DNP6), Metabolic Activation: NONE, Method: STANDARD PLATE): active; positive
- mutagenic call (Strain/Indicator: TA98(NR), Metabolic Activation: NONE): active; positive
- mutagenic call (Strain/Indicator: TA98(NR), Metabolic Activation: NONE, Method: STANDARD PLATE): active; positive
- mutagenic call (Strain/Indicator: TA98, Metabolic Activation: NONE): active; positive
- mutagenic call (Strain/Indicator: TA98, Metabolic Activation: RAT, LIVER, S-9, AROCLOR 1254, Method: STANDARD PLATE): active; positive
- mutagenic call (Strain/Indicator: TA100(NR), Metabolic Activation: NONE, Method: STANDARD PLATE): inactive; negative
- mutagenic call (Strain/Indicator: TA100(TN5-1,8-DNP1012), Metabolic Activation: NONE, Method: STANDARD PLATE): inactive; negative
- mutagenic call (Strain/Indicator: TA100, Metabolic Activation: NONE): active; positive
- mutagenic call (Strain/Indicator: TA100, Metabolic Activation: NONE, Method: STANDARD PLATE): active; positive
- mutagenic call (Strain/Indicator: TA1535, Metabolic Activation: NONE): inactive; negative
- mutagenic call (Strain/Indicator: TA1537, Metabolic Activation: NONE): active; positive
- mutagenic call (Strain/Indicator: TA1538, Metabolic Activation: NONE): active; positive
- mutagenic call (Strain/Indicator: TA1978, Metabolic Activation: NONE): active; positive
- mutagenic call (Strain/Indicator: TA7001, Metabolic Activation: NONE, Method: PREINCUBATION): active; positive
- mutagenic call (Strain/Indicator: TA7002, Metabolic Activation: NONE, Method: PREINCUBATION): active; positive
- mutagenic call (Strain/Indicator: TA7003, Metabolic Activation: NONE, Method: PREINCUBATION): active; positive
- mutagenic call (Strain/Indicator: TA7004, Metabolic Activation: NONE, Method: PREINCUBATION): active; positive
- mutagenic call (Strain/Indicator: TA7005, Metabolic Activation: NONE, Method: PREINCUBATION): active; positive
- mutagenic call (Strain/Indicator: TA7006, Metabolic Activation: NONE, Method: PREINCUBATION): active; positive
- mutagenic call (Strain/Indicator: TM677, Metabolic Activation: RAT, LIVER, S-9, AROCLOR 1254, Method: STANDARD PLATE): active; positive
